The values below come from PMC4029899 (Clinical pharmacology and therapeutics, 2014).

The structures appear in SMILES notation. Like-named read-outs stand apart in the source and are kept apart here. Marks after values point to notes of the source that are not given here.

Data set [1] has as its target T1, CYP2D6 (Homo sapiens, UniProt P10635). Description: Reversible CYP2D6 inhibition. In kind it is biochemical.
A further data set deals with CYP3A4 mRNA. The data set is described as follows: CYP3A4 mRNA induction in cryopreserved human hepatocytes. The class given is cell-based.
In data set [2] the target is T1, CYP2D6. The data set is described as follows: Static DDI risk prediction, unbound [I]/Ki.
Data set [3] can be described thus: Drug specific pharmacokinetic parameters used for simulations. The class given is in vivo, human.
The conditions of data set [4]: cited from earlier work.
The conditions of data set [5]: parameter used for simulations; ref SimCYP compound library; cited from earlier work.
The target of data set [6] is T2, CYP2C19 (Homo sapiens, UniProt P33261). Description: Clinical cocktail DDI study with fluoxetine, omeprazole probe. The class given is in vivo. The following applies: for Cmax / half-life: both, human, plasma, oral; for half-life: probe omeprazole.
Data set [7] relates to CYP2C19. The data set is described as above. The class given is in vivo, human. The following applies: human, plasma, oral.
The conditions of data set [8]: cited from earlier work; for CLpo: calculated from reported CLiv and bioavailability.
Data set [9] addresses T2, CYP2C19. The following applies: from AUC ratio in CYP2C19 poor and extensive metabolizers; cited from earlier work.
The next data set concerns the target CYP3A4 (Homo sapiens, UniProt P08684). The following applies: parameter used for simulations; ref SimCYP compound library; cited from earlier work.
For the next data set, the system named is Caco-2. The following applies: ADAM model input; cited from earlier work.
[10] abbreviates: parameter used for simulations, ref SimCYP compound library.
The mark [11] stands for this setting: estimated to achieve desired distribution kinetics.

T2 sequence (P33261 whole entry): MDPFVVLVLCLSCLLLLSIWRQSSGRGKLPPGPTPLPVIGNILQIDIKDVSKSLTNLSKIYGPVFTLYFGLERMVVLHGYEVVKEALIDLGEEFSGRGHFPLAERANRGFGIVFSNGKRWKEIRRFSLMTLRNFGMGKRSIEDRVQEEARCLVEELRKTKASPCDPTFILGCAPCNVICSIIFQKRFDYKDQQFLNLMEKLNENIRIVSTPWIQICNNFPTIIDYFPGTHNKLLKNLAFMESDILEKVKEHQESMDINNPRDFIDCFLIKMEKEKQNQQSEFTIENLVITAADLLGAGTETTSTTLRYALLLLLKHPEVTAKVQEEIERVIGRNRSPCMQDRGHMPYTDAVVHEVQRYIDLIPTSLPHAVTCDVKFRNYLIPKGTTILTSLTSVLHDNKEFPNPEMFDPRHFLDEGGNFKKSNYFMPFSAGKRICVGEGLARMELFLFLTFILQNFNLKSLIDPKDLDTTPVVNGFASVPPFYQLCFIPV
T1 sequence (P10635 whole entry): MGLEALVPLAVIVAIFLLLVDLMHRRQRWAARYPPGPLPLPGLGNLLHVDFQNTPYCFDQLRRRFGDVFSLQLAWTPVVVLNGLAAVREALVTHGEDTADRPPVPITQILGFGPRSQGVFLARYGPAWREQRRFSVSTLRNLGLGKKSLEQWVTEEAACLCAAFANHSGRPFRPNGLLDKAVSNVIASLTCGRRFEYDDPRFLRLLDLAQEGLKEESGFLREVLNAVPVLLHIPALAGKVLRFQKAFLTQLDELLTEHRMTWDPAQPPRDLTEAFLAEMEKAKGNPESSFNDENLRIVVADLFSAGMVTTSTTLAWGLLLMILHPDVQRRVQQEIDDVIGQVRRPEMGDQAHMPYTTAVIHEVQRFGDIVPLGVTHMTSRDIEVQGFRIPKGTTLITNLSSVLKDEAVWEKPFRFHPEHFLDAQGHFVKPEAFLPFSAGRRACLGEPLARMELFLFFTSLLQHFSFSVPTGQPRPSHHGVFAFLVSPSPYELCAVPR
CYP3A4, sequence (P08684 whole entry): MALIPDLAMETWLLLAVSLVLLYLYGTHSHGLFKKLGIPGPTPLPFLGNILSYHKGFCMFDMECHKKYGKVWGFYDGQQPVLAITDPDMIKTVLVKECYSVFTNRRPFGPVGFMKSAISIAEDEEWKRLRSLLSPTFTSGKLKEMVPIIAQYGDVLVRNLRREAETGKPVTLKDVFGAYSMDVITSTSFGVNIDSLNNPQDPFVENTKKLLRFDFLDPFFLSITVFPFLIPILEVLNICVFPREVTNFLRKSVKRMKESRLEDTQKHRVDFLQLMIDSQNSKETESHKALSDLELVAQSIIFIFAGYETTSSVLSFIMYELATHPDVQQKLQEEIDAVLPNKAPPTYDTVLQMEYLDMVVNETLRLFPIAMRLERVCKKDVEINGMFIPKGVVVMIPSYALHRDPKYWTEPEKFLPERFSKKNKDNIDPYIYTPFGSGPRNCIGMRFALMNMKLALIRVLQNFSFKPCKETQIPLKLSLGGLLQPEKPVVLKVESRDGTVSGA

Regarding `NCC[C@H](Oc1ccc(C(F)(F)F)cc1)c1ccccc1` [(S)-norfluoxetine], the Ki at CYP2D6 [1] turned out to be 0.035 µM. In the data set on CYP3A4 mRNA (hepatocytes from three donors), the “Imax, CYP3A4 mRNA induction” value amounted to 2.6 fold. It took 3.9 µM to reach a half-maximal effect in the data set with CYP3A4 mRNA (human, cryopreserved human hepatocytes) (EC50 at 48 h). The “CYP3A4 Emax” value in the data set on CYP3A4 mRNA (mRNA induction, not scaled to Rifampin) was found to be 2.6. Besides, the “predicted share of the in vivo CYP2D6 inhibition” value at CYP2D6 [2] is recorded as about 40%. Further, the CLIV in [3] (estimated to reflect the reported t1/2 following a single oral dose) was 5.8 L/h. In data set [4] (setting [10]), the LogP was 3.8 and the “pKa 1” value was 9. For the same compound, the fu in [5] is listed as 0.13.
Turning to `COc1ccc2[nH]c([S+]([O-])Cc3ncc(C)c(OC)c3C)nc2c1` (stereo not drawn) [Omeprazole], the “decrease in oral CL” value on CYP2C19 [6] (after 12 days of fluoxetine) is 86%. Besides, the “change in t1/2” value at CYP2C19 [6] (after fluoxetine) is on record as “unchanged”. In addition, the “increase in AUC0-∞ compared to control” value at CYP2C19 [6] (after fluoxetine dosing) is reported as 7.1 fold. At CYP2C19 [6], the peak concentration (Cmax) is 2500 ± 1400 nM and the half-life was 1.3 ± 0.1 h. Moreover, on CYP2C19 [6] (20 mg), the highest level (Cmax) was 660 ± 380 nM and the half-life was 1.2 ± 0.5 h. Further, on CYP2C19 [6] (fluoxetine administration day), the “omeprazole concentrations, other subjects” value was 2800 ± 1200 nM. Besides, on CYP2C19 [6] (fluoxetine administration day, except 12-hour sample), the “omeprazole concentrations, excluded outlier subject” value is recorded as under 4 nM. In the data set with CYP2C19 [7], this compound displayed a concentration at 12 h of 34 nM. For the same compound, in data set [3] (setting [11]), the Vsac is 0.1 L/kg and the “Vsac Q” value was 10 L/h. Also, the intrinsic solubility in [4] (ADAM model input) is 250 µg/mL. The fu in data set [5] is listed as 0.043. In addition, the CLpo in data set [8] is 80 ^b L/hr. Moreover, in data set [8] (listed as omeprazole), the CLpo was 80 L/h. The CLr in data set [8] (setting [10]) was 0.037 L/h. For the same compound, the Vss in data set [8] (previously reported) was 0.24 ^b L/kg. The “fm CYP2C19” value at CYP2C19 [9] is 0.93 ^e. Also, the “fm CYP3A4” value at CYP3A4 is given as 0.07. The Caco-2 permeability in the data set with Caco-2 is reported as 26.2*10^−06 cm/s.

The Ki is the dissociation constant of the complex between target and ligand, obtained from inhibition or displacement. The term EC50 denotes the concentration needed to bring the measured effect to its halfway point. A lower EC50 goes with greater potency. A word on the LogP: it is the decadic logarithm of the partition coefficient of the neutral form, usually between octanol and water. The term Cmax denotes the highest concentration seen after dosing. For orientation: half-life means the time in which the quantity being followed falls by half.
